Experimental data reported in article PMC5820588, “Isolation and Biological Evaluation of Prenylated Flavonoids from Maclura pomifera” (Evidence-based Complementary and Alternative Medicine : eCAM, 2018).

What was measured:
CB1 receptor = CB1 receptor (Homo sapiens, UniProt P21554); assay: Cannabinoid receptor assay, CB1 (CP-55940 as control); format: binding
Experimental: (§1) The affinities of the total extracts and the isolated compounds towards cannabinoid and opioid receptors were assessed according to the published method.
(§2) The affinities of the total extracts and the isolated compounds towards cannabinoid and opioid receptors were assessed using CP-55940 and Naloxone as controls for cannabinoid and opioid receptors assays, respectively.

CB2 receptor = CB2 receptor (Homo sapiens, UniProt P34972); assay: Cannabinoid receptor assay, CB2 (CP-55940 as control); format: binding
Experimental: as §1, §2

[1] = target: T1, recombinant human monoamine oxidase-A (Homo sapiens, UniProt P21397); assay: MAO-A inhibition, kynuramine deamination assay; format: biochemical; settings: kynuramine 80 μM, pH 7.4, 37°C; mean ±SD of triplicate
T1 construct: purchased BD Biosciences (Bedford, MA, USA)
T1 sequence (P21397 1-527): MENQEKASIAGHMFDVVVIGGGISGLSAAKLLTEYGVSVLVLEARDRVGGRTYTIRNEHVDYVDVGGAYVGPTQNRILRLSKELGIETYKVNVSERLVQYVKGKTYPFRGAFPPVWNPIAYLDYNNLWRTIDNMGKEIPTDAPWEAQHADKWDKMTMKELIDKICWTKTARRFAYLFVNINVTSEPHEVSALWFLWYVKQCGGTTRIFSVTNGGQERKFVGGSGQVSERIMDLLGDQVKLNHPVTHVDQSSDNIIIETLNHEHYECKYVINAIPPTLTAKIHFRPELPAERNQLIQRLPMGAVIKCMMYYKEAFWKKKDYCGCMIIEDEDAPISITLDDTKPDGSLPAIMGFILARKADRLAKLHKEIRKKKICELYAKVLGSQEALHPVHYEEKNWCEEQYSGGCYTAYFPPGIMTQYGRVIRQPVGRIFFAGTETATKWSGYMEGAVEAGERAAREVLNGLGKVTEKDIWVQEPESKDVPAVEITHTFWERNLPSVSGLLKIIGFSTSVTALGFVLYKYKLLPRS
Experimental: (§3) The inhibitory effects of the chemical components of M. pomifera (L.) on MAO-A and MAO-B were determined via the kynuramine deamination assay, where it was adapted for 96-well plates as described earlier. A fixed concentration of the substrate and varying concentrations of the inhibitor were used to determine the IC50 value at the point where 50% inhibition of the catalytic activity of the enzyme occurred. For MAO-A, the substrate (kynuramine) concentration of 80 μM was chosen, since the KM value of substrate binding reported previously was approximately 40 μM [23]. […] Similarly, for MAO-B, a substrate (kynuramine) concentration of 50 μM was chosen. The assay was performed with the addition of the inhibitor. Inhibition was calculated as percent of the product formation compared to the corresponding control (enzyme-substrate reaction) without the inhibitors. The enzyme reactions were carried out in 0.1 M potassium phosphate buffer at pH 7.4. Reaction mixtures contained 5 μg/mL of MAO-A (18.75 μL in buffer) and 10 μg/mL of MAO-B (18.75 μL in buffer). The compounds were dissolved in DMSO and diluted in buffer. The total reaction mixture volume was 75 μL, yielding a final DMSO concentration of 1.0% in the reaction mixture. The reaction mixtures were preincubated for 10 min at 37°C followed by the addition of MAO-A/MAO-B to initiate the reactions. The reaction mixtures were incubated for 20 min at 37°C and stopped by the addition of 28 μL of 2 N NaOH. The formation of 4-hydroxyquinoline was determined fluorometrically by Spectra Max M5 fluorescence plate reader (Molecular Devices, Sunnyvale, CA, USA) with an excitation and emission wavelength of 320 nm and 380 nm, respectively, using the Soft Max Pro program. Appropriate controls were set up to check the interference with the fluorescence measurements. […] The determination of IC50 values for inhibition of MAO-A and MAO-B by the M. pomifera (L.) compounds was performed using a fixed concentration of the substrate and varying the concentration of the inhibitor.
(§4) The compounds isolated from M. pomifera (L.) fruits were tested for their inhibitory effect against recombinant human MAO isoforms (MAO-A and MAO-B) in vitro. The enzymatic activity of MAO-A and MAO -B was determined via a fluorescence based method.

[2] = target: T2, recombinant human monoamine oxidase-B (Homo sapiens, UniProt P27338); assay: MAO-B inhibition, kynuramine deamination assay; format: biochemical; settings: for IC50: kynuramine 50 μM, pH 7.4, 37°C, mean ±SD of triplicate; for Selectivity of MAO inhibition: MAO-B versus MAO-A; for SI index MAO-A/B: ratio of MAO-A IC50 to MAO-B IC50
T2 construct: purchased BD Biosciences (Bedford, MA, USA)
T2 sequence (P27338 1-520): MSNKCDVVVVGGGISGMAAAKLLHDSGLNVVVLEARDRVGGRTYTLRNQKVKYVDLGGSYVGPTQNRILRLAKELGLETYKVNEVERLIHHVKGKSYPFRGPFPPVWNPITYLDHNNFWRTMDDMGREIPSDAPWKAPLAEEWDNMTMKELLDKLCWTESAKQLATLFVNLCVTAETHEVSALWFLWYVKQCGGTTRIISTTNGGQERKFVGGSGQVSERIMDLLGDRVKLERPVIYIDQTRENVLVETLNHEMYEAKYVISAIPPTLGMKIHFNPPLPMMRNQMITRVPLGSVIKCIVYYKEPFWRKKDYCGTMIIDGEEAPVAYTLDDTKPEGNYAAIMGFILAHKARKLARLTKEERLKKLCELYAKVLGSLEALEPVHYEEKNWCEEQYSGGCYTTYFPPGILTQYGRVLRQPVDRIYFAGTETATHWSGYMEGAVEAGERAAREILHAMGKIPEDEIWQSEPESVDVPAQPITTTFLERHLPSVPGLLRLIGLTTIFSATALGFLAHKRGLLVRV
Experimental: as §3, §4

κ opioid receptor = κ opioid receptor (Homo sapiens, UniProt P41145); assay: Opioid receptor assay, κ (Naloxone as control); format: binding; settings: negative value read as possibly allosteric
Experimental: as §1, §2

μ opioid receptor = μ opioid receptor (Homo sapiens, UniProt P35372); assay: Opioid receptor assay, μ (Naloxone as control); format: binding; settings: negative value read as possibly allosteric
Experimental: as §1, §2

Chain of CB2 receptor (P34972 whole entry): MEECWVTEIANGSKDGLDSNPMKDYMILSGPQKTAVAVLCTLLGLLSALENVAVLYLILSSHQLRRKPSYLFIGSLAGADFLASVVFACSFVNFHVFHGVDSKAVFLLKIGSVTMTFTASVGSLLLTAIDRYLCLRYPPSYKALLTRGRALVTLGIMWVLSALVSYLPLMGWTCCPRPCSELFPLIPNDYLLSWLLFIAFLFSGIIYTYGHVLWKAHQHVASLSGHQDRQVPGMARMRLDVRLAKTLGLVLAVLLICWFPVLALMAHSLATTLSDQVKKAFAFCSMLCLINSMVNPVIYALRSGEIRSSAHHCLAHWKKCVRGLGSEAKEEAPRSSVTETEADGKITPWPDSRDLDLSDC
Chain of CB1 receptor (P21554 whole entry): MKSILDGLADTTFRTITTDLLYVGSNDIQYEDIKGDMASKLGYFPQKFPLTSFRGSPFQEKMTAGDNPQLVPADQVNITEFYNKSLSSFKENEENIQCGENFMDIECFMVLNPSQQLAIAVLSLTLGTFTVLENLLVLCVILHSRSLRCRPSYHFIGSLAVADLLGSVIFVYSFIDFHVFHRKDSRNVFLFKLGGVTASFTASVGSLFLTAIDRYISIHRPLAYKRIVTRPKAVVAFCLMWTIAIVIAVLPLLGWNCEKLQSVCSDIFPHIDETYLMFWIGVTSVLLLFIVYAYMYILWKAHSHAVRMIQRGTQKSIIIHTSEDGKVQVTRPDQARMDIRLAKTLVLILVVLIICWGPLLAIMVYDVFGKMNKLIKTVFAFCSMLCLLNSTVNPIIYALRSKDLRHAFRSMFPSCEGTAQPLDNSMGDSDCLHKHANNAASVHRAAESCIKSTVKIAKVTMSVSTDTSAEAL
Chain of κ opioid receptor (P41145 whole entry): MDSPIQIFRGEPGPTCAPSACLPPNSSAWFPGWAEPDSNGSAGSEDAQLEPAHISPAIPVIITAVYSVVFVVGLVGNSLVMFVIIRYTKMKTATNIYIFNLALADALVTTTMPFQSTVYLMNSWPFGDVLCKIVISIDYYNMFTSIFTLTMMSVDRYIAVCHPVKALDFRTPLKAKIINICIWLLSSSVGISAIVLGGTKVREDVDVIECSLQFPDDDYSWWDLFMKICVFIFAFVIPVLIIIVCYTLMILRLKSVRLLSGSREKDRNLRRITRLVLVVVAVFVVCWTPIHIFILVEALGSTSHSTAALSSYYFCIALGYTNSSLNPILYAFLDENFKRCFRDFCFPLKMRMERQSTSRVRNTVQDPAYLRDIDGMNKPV
Chain of μ opioid receptor (P35372 whole entry): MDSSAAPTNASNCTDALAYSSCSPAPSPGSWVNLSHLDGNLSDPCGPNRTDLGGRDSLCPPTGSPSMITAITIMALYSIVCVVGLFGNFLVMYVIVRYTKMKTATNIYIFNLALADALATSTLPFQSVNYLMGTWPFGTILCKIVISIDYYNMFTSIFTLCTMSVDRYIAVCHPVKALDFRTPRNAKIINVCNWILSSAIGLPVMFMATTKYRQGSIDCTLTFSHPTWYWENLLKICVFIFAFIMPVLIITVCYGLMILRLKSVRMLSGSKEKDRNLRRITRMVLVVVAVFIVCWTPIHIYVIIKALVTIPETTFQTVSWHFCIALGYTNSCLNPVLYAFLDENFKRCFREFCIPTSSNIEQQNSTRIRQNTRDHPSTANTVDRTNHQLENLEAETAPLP

SMILES	IC50 (CB1 receptor) [µM]	Ki (CB1 receptor) [µM]	CB1 % displacement (CB1 receptor; 10 μM) [%]	CB1 % displacement (CB1 receptor; concentration not given) [%]	IC50 (CB2 receptor) [µM]	CB2 % displacement (CB2 receptor; 10 μM) [%]	CB2 % displacement (CB2 receptor; concentration not given) [%]	IC50 [1] [µM]	IC50 [2] [µM]	Ki (CB2 receptor) [µM]	Selectivity of MAO inhibition [2]	SI index MAO-A/B [2]	κ opioid receptor % displacement (κ opioid receptor) [%]	μ opioid receptor % displacement (μ opioid receptor) [%]
CC(C)=CCc1c2c(c3occ(-c4ccc(O)c(O)c4)c(=O)c3c1O)C=CC(C)(C)O2 [Pomiferin (V), pomiferin]	2.11	1.05	107.2	107.2	1.32	66.0	66.0	> 100	> 100	–	–	–	–	–
CC(C)=CCc1c2c(c3occ(-c4ccc(O)cc4)c(=O)c3c1O)C=CC(C)(C)O2 [Osajin (VIII), osajin]	3.86	1.93	93.9	93.9	7.65	52.7	52.7	> 100	> 100	3.82	–	–	–	–
CC(C)=CCc1c2c(c(O)c3c(=O)c(-c4ccc(O)cc4)coc13)C=CC(C)(C)O2 [Warangalone (VII), warangalone]	1.67	–	111.3	111.3	4.44	77.6	77.57	> 100	5.69 ± 0.38	2.22	selective inhibition of MAO-B	–	–	–
C=C(C)C(O)C(=O)c1c2c(c3occ(-c4ccc(O)c(O)c4)c(=O)c3c1O)C=CC(C)(C)O2 (stereo not drawn) [Kazosajin II, 3-(3,4-Dihydroxyphenyl)-5-hydroxy-6-(2-hydroxy-3-methylbut-3-enoyl)-8,8-dimethylpyrano[2,3-f]chromen-4(8H)-one]	–	–	–	47.9	–	–	42.3	72 ± 3.72	4.28 ± 0.67	–	selective inhibition of MAO-B	16.829	–	–
COC(c1c2c(c(O)c3c(=O)c(-c4ccc(O)c(O)c4)coc13)C=CC(C)(C)O2)C1OC1(C)C (stereo not drawn) [Kazosajin IV, 3-(3,4-Dihydroxyphenyl)-10-((3,3-dimethyloxiran-2-yl)(methoxy)methyl)-5-hydroxy-8,8-dimethylpyrano[3,2-g]chromen-4(8H)-one]	–	–	–	–	–	–	–	71.2 ± 2.61	17.7 ± 1.06	–	–	4.032	–	–
COC(Cc1c2c(c(O)c3c(=O)c(-c4ccc(O)c(O)c4)coc13)C=CC(C)(C)O2)C(C)(C)O (stereo not drawn) [Kazosajin I, 3-(3,4-Dihydroxyphenyl)-5-hydroxy-10-(3-hydroxy-2-methoxy-3-methylbutyl)-8,8-dimethylpyrano[3,2-g]chromen-4(8H)-one]	–	–	–	60.5	–	–	–	74.3 ± 3.44	11.6 ± 1.39	–	–	6.413	−88.4	−27.2
CC(C)=CCc1c2c(c(O)c3c(=O)c(-c4ccc(O)c(O)c4)coc13)C=CC(C)(C)O2 [Auriculasin (VI), auriculasin]	8.92	4.46	86.7	–	–	–	–	46 ± 4.48	1.91 ± 0.32	–	selective inhibition of MAO-B	24.073	–	–
CC1(C)C=Cc2c(c3c(c4c(=O)c(-c5ccc(O)cc5)coc24)OC(C)(C)C(O)C3)O1 (stereo not drawn) [Kazosajin III, 11-Hydroxy-7-(4-hydroxyphenyl)-2,2,10,10-tetramethyl-11,12-dihydro-2H-dipyrano[2,3-f: 2′,3′-h]chromen-8(10H)-one]	–	–	–	–	–	–	–	> 100	7.16 ± 1.15	–	selective inhibition of MAO-B	–	–	–
